# Assay results taken from publication PMC5048684 (The journal of physical chemistry. B, 2016).
# Where two headings read alike, the source gives them in different places.
# Legend:
# [1] = biological target: CYP3A4 (Homo sapiens, UniProt P08684); experiment: Luminescence titration of solubilized CYP3A4 with type I and type II ligands
# [2] = biological target: T1, CYP2C9 (Homo sapiens, UniProt P11712); details: read-out: KS (reported value); ref Hutzler et al. 31; cited from earlier work
# [3] = biological target: T1, CYP2C9; experiment: Luminescence titration of solubilized CYP2C9 with type I and type II ligands
# [4] = biological target: T2, P450cam (Pseudomonas putida, UniProt P00183); details: read-out: KS (literature values); depending on the stereoisomer used; cited from earlier work
# T2 sequence (P00183 1-415): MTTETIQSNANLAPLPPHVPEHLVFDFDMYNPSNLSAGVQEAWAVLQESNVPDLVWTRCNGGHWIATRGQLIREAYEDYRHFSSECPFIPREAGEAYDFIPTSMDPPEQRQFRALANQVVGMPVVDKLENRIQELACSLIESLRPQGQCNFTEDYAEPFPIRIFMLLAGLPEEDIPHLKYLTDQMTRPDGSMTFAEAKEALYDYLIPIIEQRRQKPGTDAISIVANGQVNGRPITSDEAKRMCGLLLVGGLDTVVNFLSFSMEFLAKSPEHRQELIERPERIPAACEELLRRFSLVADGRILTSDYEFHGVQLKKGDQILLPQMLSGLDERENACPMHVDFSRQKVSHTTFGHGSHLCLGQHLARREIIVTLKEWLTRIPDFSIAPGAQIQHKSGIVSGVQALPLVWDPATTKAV
# T1 sequence (P11712 whole entry): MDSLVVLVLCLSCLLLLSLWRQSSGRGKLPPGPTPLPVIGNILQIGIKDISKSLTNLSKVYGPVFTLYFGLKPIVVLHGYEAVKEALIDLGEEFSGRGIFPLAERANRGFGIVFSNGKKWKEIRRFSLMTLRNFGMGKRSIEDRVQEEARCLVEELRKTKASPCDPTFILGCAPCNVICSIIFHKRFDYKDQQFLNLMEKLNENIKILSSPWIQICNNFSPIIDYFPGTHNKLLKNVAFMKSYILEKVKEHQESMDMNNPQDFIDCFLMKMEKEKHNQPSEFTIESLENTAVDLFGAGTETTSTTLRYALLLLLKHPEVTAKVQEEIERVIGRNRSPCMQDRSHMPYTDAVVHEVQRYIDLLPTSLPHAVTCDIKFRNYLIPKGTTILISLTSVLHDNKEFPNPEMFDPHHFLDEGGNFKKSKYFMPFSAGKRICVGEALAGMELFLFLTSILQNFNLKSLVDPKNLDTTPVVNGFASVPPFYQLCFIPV
# CYP3A4, sequence (P08684 whole entry): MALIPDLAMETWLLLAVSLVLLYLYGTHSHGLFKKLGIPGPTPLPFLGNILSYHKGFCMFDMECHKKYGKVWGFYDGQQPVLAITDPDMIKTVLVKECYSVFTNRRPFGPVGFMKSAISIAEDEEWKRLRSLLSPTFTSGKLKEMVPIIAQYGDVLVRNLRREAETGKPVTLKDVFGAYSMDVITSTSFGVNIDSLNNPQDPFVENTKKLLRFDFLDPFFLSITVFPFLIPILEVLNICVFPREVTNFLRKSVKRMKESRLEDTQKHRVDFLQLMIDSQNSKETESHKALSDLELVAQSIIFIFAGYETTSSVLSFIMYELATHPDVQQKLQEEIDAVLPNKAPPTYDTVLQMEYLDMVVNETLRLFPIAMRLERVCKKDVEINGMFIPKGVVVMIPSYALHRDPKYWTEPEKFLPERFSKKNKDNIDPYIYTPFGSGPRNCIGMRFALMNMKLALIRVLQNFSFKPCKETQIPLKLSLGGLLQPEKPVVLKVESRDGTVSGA
smiles,measurement,setting,value
C[C@]12CC[C@H]3[C@@H](CCC4=CC(=O)CC[C@@]43C)[C@@H]1CC[C@@H]2O [testosterone],Kd,[1],30.5 ± 6.5 µM
CC(C(=O)O)c1ccc(-c2ccccc2)c(F)c1 (centres unmarked) [flurbiprofen],Kd,[2],14.1 µM
same,Kd,[3],20.2 ± 1.1 µM
CC12CCC(CC1=O)C2(C)C (centres unmarked) [camphor],Kd,[4],1.6 to 2.6 µM
"O=C(Nc1ccc2ccccc2c1)c1cc(-c2ccncc2)nc2ccccc12 [QC, N-(naphthalene-2-yl)-2-(pyridine-4-yl)quinoline-4-carboxamide]",Kd,[3],0.11 ± 0.06 µM
